pIC50: −log10 of the molar value.
What was measured:
[1] = system: activated platelets; assay: TF-dependent procoagulant activity (Actichrome TF assay); assay type: cell-based, human; conditions: stimulated platelets (fibrinogen + thrombin)
Source text: (§1) CD34+ stem cells were isolated from human umbilical cord blood and were differentiated into megakaryocytes that produce proplatelets using methods that we have previously described^18. Leukocyte-depleted human platelets were isolated from healthy volunteers using previously described methods^18,29. For all of the platelet studies, residual leukocytes were removed from the washed preparations by CD45+ bead selection as previously described^1. […] Platelets were resuspended in M199 serum-free culture medium^1,2. Platelets were left quiescent or allowed to adhere to immobilized human fibrinogen (Calbiochem) in the presence of thrombin (0.05 U/ml; Sigma-Aldrich). Select studies were also conducted with suspended platelets that were activated with ADP, collagen, or thrombin. […] For translational inhibition, platelets were isolated and preincubated for 2 h in the presence of vehicle (water) or puromycin as previously described^2.
TF-dependent procoagulant activity was calculated with an Actichrome TF assay (American Diagnostica) as previously described^13. […] Intact cellular membranes and microparticles were immediately placed in 25 μl of kit assay buffer and TF-dependent procoagulant activity was calculated. […]

[2] = system: platelets; assay: Other platelet functional responses (immunocytochemistry); assay type: cell-based, human; conditions: fibrinogen + thrombin, 1 h
Method: After 1 h, the cells were prepared for immunocytochemical detection (red staining) of Clk1 (top) or β-tubulin (bottom). The green stain in each panel identifies polymerized actin.
Detailed strategies for protein detection by flow cytometry, Western blot analysis, and immunocytochemistry have been previously published^18,29. A polyclonal antibody against human TF (pAb CL 20150A; Affinity Biologicals) was used under nonreducing conditions to detect TF protein by Western analysis. Antibodies directed against TF (mAb 550252; BD Biosciences), Clk family members (Abgent), or β-tubulin (Sigma-Aldrich) were used for immunocytochemical studies. For the in situ experiments, polymerized actin was detected with Alexa fluor 488 phalloidin (Molecular Probes). Specificity was confirmed by parallel studies with nonimmune IgG or deletion of the primary antibody. Detailed strategies for protein detection by Western analysis and immunocytochemistry have been previously published^1,2. Flow cytometric analysis of surface-expressed CD14, CD45, and CD162 (PSGL-1) was performed on washed platelet preparations before and after CD45 depletion, on CD45 positively selected cells, and on purified monocytes (FIG. 1).

[3] = biological target: SRPK1 (Homo sapiens, UniProt Q96SB4); conditions: at concentrations up to 1 μM; cited from earlier work
[4] = system: PKC; conditions: at concentrations up to 1 μM; cited from earlier work
[5] = system: human plasma; assay: Plasma clot formation with membranes from activated platelets; assay type: cell-based; conditions: membranes of platelets activated 5 min or 2 h
Method: FIG. 5F illustrates clot formation in plasma that is incubated with membranes isolated from quiescent platelets or platelets activated with fibrinogen and thrombin for 5 min (left) or 2 h (right). The white bars represent activated platelets that were incubated with a neutralizing antibody directed against tissue factor (Anti-TF). The data in FIGS. 5D, 5E, an 5F represent the mean±SEM of six independent experiments.
FIG. 8B is a western blot analysis showing TF protein expression in platelets and platelet-derived microparticles. […] Recombinant TF was used as a positive control. FIG. 8C depicts TF-dependent procoagulant activity in freshly isolated platelets or platelets activated, as in FIG. 2B, in the presence or absence of the Clk inhibitor. […] A single asterisk (*) indicates a statistically significant difference (P<0.05) in TF-dependent procoagulant activity between freshly isolated (baseline) and activated platelets; the double asterisk (**) represents a significant difference (P<0.05) between activated platelets under untreated or treated conditions. […] The activated platelets were pretreated with either the Clk inhibitor (Clk Inh) or DMSO. The data represent the mean±SEM of five independent experiments. […]
Therefore, the affect of platelet-derived TF on plasma clotting times was determined. […]

[6] = system: PKA; conditions: at concentrations up to 1 μM; cited from earlier work
[7] = biological target: Clk1 (Homo sapiens, UniProt P49759); assay: Immune complex kinase assay for Clk1 activity in platelets (SF2/ASF substrate); assay type: cell-based; conditions: stimulated platelets (fibrinogen + thrombin), pretreated; vs vehicle
Source text: Leukocyte-depleted human platelets were isolated from healthy volunteers using previously described methods^18,29. For all of the platelet studies, residual leukocytes were removed from the washed preparations by CD45+ bead selection as previously described^1. […] Platelets were resuspended in M199 serum-free culture medium^1,2. Platelets were left quiescent or allowed to adhere to immobilized human fibrinogen (Calbiochem) in the presence of thrombin (0.05 U/ml; Sigma-Aldrich). […] For translational inhibition, platelets were isolated and preincubated for 2 h in the presence of vehicle (water) or puromycin as previously described^2.
Immune complex kinase assay for Clk1 activity. Clk1 activity in platelets was determined using an immune complex kinase assay. […] Kinase assays were performed by addition of recombinant SF2/ASF (Protein One) in the presence of γ-[^32P]ATP (MP Biomedicals). At the end of this incubation period, the agarose beads and immune complexes were removed by centrifugation, and the unbound sample, which contained SF2/ASF, was resolved by SDS-PAGE.

[8] = system: TF pre-mRNA; assay: TF pre-mRNA splicing in activated platelets (PCR); assay type: cell-based, human; conditions: platelets adherent to fibrinogen, coactivated with thrombin 2 h
Source text: as §1, with “described^2. For most of the TF pre-mRNA studies, primers that targeted sequences in exon four ([NT] ID NO: 1) and five ([NT] ID NO: 2), and thus spanned intron four, were used to determine endogenous splicing of TF pre-mRNA in platelets. Indirect in situ hybridization or direct in situ PCR was used to detect TF pre-mRNA in megakaryocytes and platelets as previously described^18. Primers that detected alternatively spliced human […] used as previously described^3. […]” for “described^2.”

[9] = system: TF protein; assay: TF protein expression in platelets and platelet-derived microparticles (Western blot); assay type: cell-based, human; conditions: activated platelets, 30 min or 4 h
Source text: as §1
Detailed strategies for protein detection by flow cytometry, Western blot analysis, and immunocytochemistry have been previously published^18,29. A polyclonal antibody against human TF (pAb CL 20150A; Affinity Biologicals) was used under nonreducing conditions to detect TF protein by Western analysis. […] For the in situ experiments, polymerized actin was detected with Alexa fluor 488 phalloidin (Molecular Probes). […]

[10] = biological target: SRPK2 (Homo sapiens, UniProt P78362); conditions: at concentrations up to 1 μM; cited from earlier work
[11] = biological target: mClk3 (Mus musculus, UniProt O35492); conditions: cited from earlier work
[12] = system: IL-1β pre-mRNA; assay: IL-1β pre-mRNA splicing in platelets of subjects receiving medication; assay type: in vivo, human; conditions: in young subjects
[13] = system: TF pre-mRNA; assay: TF pre-mRNA splicing in platelets of subjects receiving medication; assay type: in vivo, human; conditions: for signal-dependent TF pre-mRNA splicing: in the elderly; for impact on TF pre-mRNA splicing: subjects receiving the drug

Chain of mClk3 (O35492 whole entry): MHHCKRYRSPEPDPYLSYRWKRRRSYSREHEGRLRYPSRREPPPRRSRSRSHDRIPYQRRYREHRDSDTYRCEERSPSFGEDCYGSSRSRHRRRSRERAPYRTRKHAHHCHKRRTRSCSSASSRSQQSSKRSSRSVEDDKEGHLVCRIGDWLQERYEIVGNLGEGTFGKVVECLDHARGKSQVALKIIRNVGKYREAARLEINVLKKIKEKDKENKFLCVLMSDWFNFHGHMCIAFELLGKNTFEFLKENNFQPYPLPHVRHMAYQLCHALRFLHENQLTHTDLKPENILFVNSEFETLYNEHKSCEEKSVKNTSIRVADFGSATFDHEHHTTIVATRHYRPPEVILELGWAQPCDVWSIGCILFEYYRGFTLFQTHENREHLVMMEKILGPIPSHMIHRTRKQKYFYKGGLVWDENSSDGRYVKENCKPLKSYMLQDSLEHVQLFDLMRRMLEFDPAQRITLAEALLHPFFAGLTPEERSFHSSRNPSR
Chain of SRPK2 (P78362 whole entry, species assumed): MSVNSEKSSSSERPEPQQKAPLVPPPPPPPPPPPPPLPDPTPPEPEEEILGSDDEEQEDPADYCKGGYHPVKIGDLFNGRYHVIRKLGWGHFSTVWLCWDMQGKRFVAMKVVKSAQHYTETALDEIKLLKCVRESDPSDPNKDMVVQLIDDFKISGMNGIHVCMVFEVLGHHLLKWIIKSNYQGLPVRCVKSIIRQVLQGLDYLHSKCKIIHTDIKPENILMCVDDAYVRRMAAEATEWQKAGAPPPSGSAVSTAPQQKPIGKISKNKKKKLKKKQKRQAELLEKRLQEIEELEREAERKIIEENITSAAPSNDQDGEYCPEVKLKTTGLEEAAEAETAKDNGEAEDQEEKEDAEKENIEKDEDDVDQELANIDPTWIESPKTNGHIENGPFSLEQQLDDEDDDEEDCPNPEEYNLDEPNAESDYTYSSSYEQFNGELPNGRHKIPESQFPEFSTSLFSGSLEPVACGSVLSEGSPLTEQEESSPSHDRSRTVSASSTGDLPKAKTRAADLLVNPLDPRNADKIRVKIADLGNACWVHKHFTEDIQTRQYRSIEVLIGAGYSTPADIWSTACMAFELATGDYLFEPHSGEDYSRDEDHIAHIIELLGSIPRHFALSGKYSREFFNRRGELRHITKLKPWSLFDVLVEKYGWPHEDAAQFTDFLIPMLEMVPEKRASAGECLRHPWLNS
Chain of SRPK1 (Q96SB4 whole entry, species assumed): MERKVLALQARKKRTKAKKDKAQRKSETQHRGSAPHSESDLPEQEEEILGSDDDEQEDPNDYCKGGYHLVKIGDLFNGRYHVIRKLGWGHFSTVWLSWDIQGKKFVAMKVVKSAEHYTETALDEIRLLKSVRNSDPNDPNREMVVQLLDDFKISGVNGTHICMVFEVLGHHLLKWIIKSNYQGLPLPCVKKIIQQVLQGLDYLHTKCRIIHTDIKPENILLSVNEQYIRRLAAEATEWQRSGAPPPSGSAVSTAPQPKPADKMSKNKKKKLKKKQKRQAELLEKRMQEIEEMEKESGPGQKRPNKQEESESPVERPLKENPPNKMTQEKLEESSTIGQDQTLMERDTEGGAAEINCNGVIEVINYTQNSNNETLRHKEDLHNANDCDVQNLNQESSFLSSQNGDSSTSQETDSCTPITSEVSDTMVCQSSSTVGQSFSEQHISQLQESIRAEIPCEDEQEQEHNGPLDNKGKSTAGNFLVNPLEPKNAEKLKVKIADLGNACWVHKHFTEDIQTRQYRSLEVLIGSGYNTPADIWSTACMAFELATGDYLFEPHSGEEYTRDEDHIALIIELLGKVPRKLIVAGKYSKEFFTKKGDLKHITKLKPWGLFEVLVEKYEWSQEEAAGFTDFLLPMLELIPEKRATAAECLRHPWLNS
Chain of Clk1 (P49759 whole entry): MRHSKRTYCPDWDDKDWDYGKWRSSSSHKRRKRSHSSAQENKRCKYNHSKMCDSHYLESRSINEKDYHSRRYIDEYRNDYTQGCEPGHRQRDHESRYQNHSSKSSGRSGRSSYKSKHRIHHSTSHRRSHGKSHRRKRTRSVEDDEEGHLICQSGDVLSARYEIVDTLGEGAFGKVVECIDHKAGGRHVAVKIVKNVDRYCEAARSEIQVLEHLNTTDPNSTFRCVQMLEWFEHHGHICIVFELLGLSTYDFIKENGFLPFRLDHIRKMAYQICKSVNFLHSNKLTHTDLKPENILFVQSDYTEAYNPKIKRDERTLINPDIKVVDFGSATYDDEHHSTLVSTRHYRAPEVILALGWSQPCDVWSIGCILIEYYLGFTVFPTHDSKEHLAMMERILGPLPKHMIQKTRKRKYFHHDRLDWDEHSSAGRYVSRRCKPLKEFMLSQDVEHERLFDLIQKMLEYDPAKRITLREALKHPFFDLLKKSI

Compound: COc1ccc(C[C@H](N)C(=O)N[C@H]2[C@@H](O)[C@H](n3cnc4c(N(C)C)ncnc43)O[C@@H]2CO)cc1 [Puromycin]
- TF-dependent procoagulant activity [1]: significantly (P<0.05) reduced

Compound: CCN1/C(=C/C(C)=O)Sc2ccc(OC)cc21 [Tg003, (Z)-1-(3-Ethyl-5-methoxy-2,3-dihydrobenzothiazol-2-ylidene)propan-2-one]
- other platelet functional responses (adherence and spreading, actin polymerization, tubulin organization, Clk1 redistribution) [2]: no effect
- effect on activity of SRPK1 [3]: does not affect
- effect on activity of PKC [4]: does not affect
- onset of plasma clot formation [5]: delayed
- effect on activity of PKA [6]: does not affect
- Clk1-dependent SF2/ASF phosphorylation [7]: suppressed
- processing of TF pre-mRNA [8]: prevented
- expression of TF protein [9]: blocked
- effect on activity of SRPK2 [10]: does not affect
- TF-dependent procoagulant activity [1]: significantly (P<0.05) reduced
- pIC50 [11]: < 5.00

Compound: CC(=O)Oc1ccccc1C(=O)O [aspirin]
- IL-1β pre-mRNA splicing [12]: do not block
- signal-dependent TF pre-mRNA splicing [13]: do not block
- impact on TF pre-mRNA splicing [13]: do not appear to have a significant impact

Compound: heparin
- IL-1β pre-mRNA splicing [12]: do not block
- signal-dependent TF pre-mRNA splicing [13]: do not block
- impact on TF pre-mRNA splicing [13]: do not appear to have a significant impact
